Patent publication US11357857B2, “Excipient compounds for protein processing” (COMERA LIFE SCIENCES, INC., priority 2014, dated 2022)
“And” between values parts separate entries of the source, which are not always exact repeats. Identical values can stand only once. Counter-ions that a name gives are not always drawn. Like-named read-outs stand apart in the source and are kept apart here.

Legend:
[1] = target: T1, PEGylated BSA (1 PEG chain per BSA molecule) (Bos taurus, UniProt P02769); test: Viscosity of PEGylated BSA with 1 PEG chain per BSA with excipient, microVisc (Example 17); format: physicochemical
T1 construct: purchased Aldrich A7906
Method: To a beaker was added 200 mL of a phosphate buffered saline (Aldrich Cat. #P4417) and 4 g of BSA (Aldrich Cat. #A7906) and mixed with a magnetic bar. Next 400 mg of methoxy polyethylene glycol maleimide, MW=5,000, (Aldrich Cat. #63187) was added. The reaction mixture was allowed to react overnight at room temperature. The following day, 20 drops of HCl 0.1 M were added to stop the reaction. […] The reaction mixture was placed in an Amicon centrifuge tube with a molecular weight cutoff (MWCO) of 30,000 and concentrated to a few milliliters. Next the sample was diluted 20 times with a histidine buffer, 50 mM at a pH of approximately 6, followed by concentrating until a high viscosity fluid was obtained.
The viscometer measurements were completed at ambient temperature.

[2] = tested on: bovine gamma globulin (BGG); test: Normalized viscosity of 280 mg/mL BGG in 20 mM histidine with local anesthetic excipients (Example 21); format: physicochemical; conditions: no B
Excerpt: The first excipient compound, Excipient A, was selected from a group of compounds having local anesthetic properties.

[3] = tested on: bovine gamma globulin (BGG); test: Normalized viscosity of 280 mg/mL BGG in distilled water with excipient combinations (Example 11); format: physicochemical; conditions: primary excipient 20 mg/mL, no secondary
Method: The primary excipient compounds were selected from compounds having both anionic and aromatic functionality, as listed below in Table 6. The secondary excipient compounds were selected from compounds having either nonionic or cationic charge at pH 6 and either imidazoline or benzene rings, as listed below in Table 6. Formulations of these excipients were prepared in distilled water for viscosity measurement in the following way. […].

[4] = tested on: bovine gamma globulin (BGG); test: Normalized viscosity of 280 mg/mL BGG in 50 mM histidine HCl with primary/secondary excipient combinations (Example 10); format: physicochemical
Method: The primary excipient compounds were selected from compounds having both anionic and aromatic functionality, as listed below in Table 5. The secondary excipient compounds were selected from compounds having either nonionic or cationic charge at pH 6 and either imidazoline or benzene rings, as listed below in Table 5. Formulations of these excipients were prepared in 50 mM histidine hydrochloride buffer solution for viscosity measurement in the following way. […] The individual primary or secondary excipient compounds were then dissolved in 50 mM histidine HCl.

[5] = tested on: bovine gamma globulin (BGG); test: Normalized viscosity of 280 mg/mL BGG in 20 mM histidine with dimethyl sulfone (Example 42); format: physicochemical
Method: Such formulations were prepared in 20 mM histidine buffer for viscosity measurement in the following way. […].

[6] = excipient 10 mg/mL
PEGylated lysozyme = PEGylated lysozyme (Gallus gallus, UniProt P00698); conditions: excipient 20 mg/mL
Method: The solution was mixed by gently shaking and the viscosity was measured by a RheoSense microVisc equipped with an A10 channel (100 micron depth) at a shear rate of 500 sec−1. The viscometer measurements were completed at ambient temperature.

[7] = tested on: bovine gamma globulin (BGG); test: Viscosity of 280 mg/mL BGG in 20 mM histidine pH 6 with different molar caffeine concentrations, microVisc (Example 31); format: physicochemical
Method: The formulations for this Example were prepared in 20 mM histidine buffer for viscosity measurement in the following way.
The viscometer was equipped with an A-10 chip having a channel depth of 100 microns, and was operated at a shear rate of 250 l/s and 25° C. To measure viscosity, the test formulation was loaded into the viscometer, taking care to remove all air bubbles from the pipet. The pipet containing the loaded sample formulation was placed in the instrument and allowed to incubate at the measurement temperature for about five minutes. The instrument was then run until the channel was fully equilibrated with the test fluid, indicated by a stable viscosity reading, and then the viscosity recorded in centipoise.

[8] = tested on: bovine gamma globulin (BGG); test: Viscosity of 280 mg/mL BGG in histidine buffer pH 6 versus amount of arginine or caffeine added (Example 24); format: physicochemical
[9] = tested on: bovine gamma globulin (BGG)
Method: Each buffer solution contained different excipient or combination of excipients as described in the table below. The viscosity of the solutions was measured as described in previous examples.

bevacizumab (AVASTIN®) = test: Viscosity of concentrated AVASTIN with and without caffeine, microVisc (Example 40); conditions: for % Viscosity Reduction from Excipient: 10 mg/mL caffeine
Method: The sample was concentrated in Amicon Ultra 4 centrifugal concentrator tubes (MWCO 30 kDa) at 3500 rpm. […] AVASTIN® stock solution was diluted with the excipient buffer then concentrated in Amicon Ultra 15 centrifugal concentrator tubes (MWCO 30 kDa). The concentration of the excipient samples was determined by Bradford assay and the viscosity was measured using the RheoSense microVisc.

[10] = tested on: bovine gamma globulin (BGG); conditions: 280 mg/mL BGG, 20 mM histidine pH 6, 25° C.; Excipient A caffeine 15 mg/mL; no Excipient B
[11] = Caffeine solubility testing with co-solutes at ambient temperature (Examples 32-33); conditions: for Observation of caffeine dissolution: caffeine 80 mg/mL
Method: Prepared solutions were used either neat or diluted with deionized water.
A small magnetic stir bar was added to the vial, and the solution was allowed to mix vigorously on a stir plate for about 10 minutes.

[12] = tested on: bovine gamma globulin (BGG); conditions: excipient 50 mg/mL
[13] = Viscosity of PEG (Mw ~1,000,000) solution in Tris buffer with excipient (Examples 12-13); format: physicochemical
[14] = primary excipient 30 mg/mL, no secondary

T1 sequence (P02769 25-607): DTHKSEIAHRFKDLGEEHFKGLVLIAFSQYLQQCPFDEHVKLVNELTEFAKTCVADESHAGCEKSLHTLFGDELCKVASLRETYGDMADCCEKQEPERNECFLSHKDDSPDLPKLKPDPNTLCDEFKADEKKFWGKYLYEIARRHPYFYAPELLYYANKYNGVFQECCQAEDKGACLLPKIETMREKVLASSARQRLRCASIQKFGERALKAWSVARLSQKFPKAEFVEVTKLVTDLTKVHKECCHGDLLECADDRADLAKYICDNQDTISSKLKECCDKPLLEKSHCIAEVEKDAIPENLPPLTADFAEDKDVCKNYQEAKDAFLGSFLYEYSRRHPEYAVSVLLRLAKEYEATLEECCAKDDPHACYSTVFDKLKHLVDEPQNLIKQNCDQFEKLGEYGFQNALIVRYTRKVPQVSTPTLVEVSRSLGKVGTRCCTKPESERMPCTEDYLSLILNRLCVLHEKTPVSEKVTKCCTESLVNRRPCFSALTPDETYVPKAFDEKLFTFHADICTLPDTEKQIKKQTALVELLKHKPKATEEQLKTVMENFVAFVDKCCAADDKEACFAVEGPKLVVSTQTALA
Sequence of PEGylated lysozyme (P00698 19-147): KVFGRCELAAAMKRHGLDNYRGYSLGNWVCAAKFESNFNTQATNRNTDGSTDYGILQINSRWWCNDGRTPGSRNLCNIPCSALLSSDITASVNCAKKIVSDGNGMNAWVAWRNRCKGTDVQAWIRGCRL

Q: What does the source list for Alpha-Cyclodextrin sulfated Na salt?
A: Viscosity ([1]; excipient 20 mg/mL): 151.5 cP; Viscosity Reduction ([1]; excipient 20 mg/mL): 34%

Q: Which “Normalized Viscosity” value ([2]; excipient A 23 mg/mL) does the source give for `CCN(CC)CC(=O)Nc1c(C)cccc1C` [Lidocaine] here?
A: The value was 0.74.

Q: What about the “Normalized Viscosity” value ([2]; excipient A 45 mg/mL) of the same compound?
A: Its value is 0.73.

Q: For `O=C(O)c1ccccc1O` [Salicylic Acid], which “Normalized Viscosity” value [3] is on record?
A: The value was 0.96.

Q: What about the “Normalized Viscosity” value [4, 14] of the same compound?
A: Its value is 0.79.

Q: Which “Normalized Viscosity” value [4, 14] does the source give for `O=C(O)c1ccc(O)cc1` [4-hydroxybenzoic acid] here?
A: The value was 0.61.

Q: With `O=S(=O)(O)c1ccc(O)cc1` [4-hydroxybenzene sulfonic acid] as the compound, how does the “Normalized Viscosity” value ([4]; primary excipient 31 mg/mL, no secondary) read?
A: The value was 0.59.

Q: Which “Normalized Viscosity” value ([4]; no primary, secondary excipient 5 mg/mL) does the source give for `c1c[nH]cn1` [Imidazole] here?
A: Its value is 0.75.

Q: What does the source list for `CS(C)(=O)=O` [Dimethyl sulfone]?
A: Normalized Viscosity ([5]; dimethyl sulfone 15 mg/mL): 0.92; Normalized Viscosity ([5]; dimethyl sulfone 30 mg/mL): 0.71 and 0.72; Normalized Viscosity ([5]; dimethyl sulfone 50 mg/mL): 0.71

Q: For `O=S(=O)([O-])[O-].[Na+].[Na+]` [Sodium sulfate], which Viscosity [6] is on record?
A: Its Viscosity is 75.1 cP.

Q: And the “Viscosity Reduction” value [6]?
A: The value was 5.8%.

Q: What does the source list for `CC(=O)[O-].[K+]` [K acetate, potassium acetate]?
A: Viscosity (PEGylated lysozyme): 22.6 cP; Viscosity Reduction (PEGylated lysozyme): 8%; Viscosity ([1]; excipient 40 mg/mL): 89.5 cP; Viscosity Reduction ([1]; excipient 40 mg/mL): 60%

Q: What does the source list for `Cn1c(=O)c2c(ncn2C)n(C)c1=O` [Caffeine]?
A: Normalized Viscosity ([7]; caffeine 5 mM): 0.81; Viscosity ([7]; caffeine 5 mM): 67 cP; Normalized Viscosity ([7]; caffeine 10 mM): 0.84; Viscosity ([7]; caffeine 10 mM): 70 cP; Normalized Viscosity ([7]; caffeine 20 mM): 0.92; Viscosity ([7]; caffeine 20 mM): 77 cP; Normalized Viscosity ([7]; caffeine 30 mM): 0.76; Viscosity ([7]; caffeine 30 mM): 63 cP; Normalized Viscosity ([7]; caffeine 40 mM): 0.78; Viscosity ([7]; caffeine 40 mM): 65 cP; Normalized Viscosity ([7]; caffeine 50 mM): 0.78; Viscosity ([7]; caffeine 50 mM): 65 cP; Normalized Viscosity ([7]; caffeine 60 mM): 0.69; Viscosity ([7]; caffeine 60 mM): 57 cP; Normalized Viscosity ([7]; caffeine 70 mM): 0.60; Viscosity ([7]; caffeine 70 mM): 50 cP; Normalized Viscosity ([7]; caffeine 80 mM): 0.60; Viscosity ([7]; caffeine 80 mM): 50 cP; Viscosity ([8]; caffeine added 10 mg/mL): 60 cP; Viscosity Reduction ([8]; caffeine added 10 mg/mL): 31%; Viscosity ([8]; caffeine added 15 mg/mL): 62 cP; Viscosity Reduction ([8]; caffeine added 15 mg/mL): 23%; Viscosity ([8]; caffeine added 22 mg/mL): 50 cP; Viscosity Reduction ([8]; caffeine added 22 mg/mL): 45%; Viscosity ([9]; caffeine 10 mg/ml): 87.9 cP; Viscosity Reduction ([9]; caffeine 10 mg/ml): 33%; Viscosity with 10 mg/mL added caffeine excipient (bevacizumab (AVASTIN®); concentration 190 mg/mL): 13 cP; % Viscosity Reduction from Excipient (bevacizumab (AVASTIN®); concentration 190 mg/mL): 36%; % Viscosity Reduction from Excipient (bevacizumab (AVASTIN®); concentration 266 mg/mL): 62%; Normalized Viscosity [10]: 0.77; Normalized Viscosity ([4]; no primary, secondary excipient 10 mg/mL): 0.73

Q: What does the source list for `CCN(CC)CCOC(=O)c1ccc(N)cc1` [Procaine HCl]?
A: Normalized Viscosity ([2]; excipient A 40 mg/mL): 0.64; Observation of caffeine dissolution ([11]; co-solute 30 mg/mL): DND; Observation of caffeine dissolution ([11]; co-solute 40 mg/mL): DND; Dissolution of caffeine enabled relative to reported solubility limit ([11]; co-solute in water, ambient temperature (about 23 C)): at least about four times; Viscosity Reduction [12]: 47%

Q: For `O=P([O-])([O-])[O-].[K+].[K+].[K+]` [Potassium phosphate, potassium phosphate tribasic], which Viscosity [6] is on record?
A: The Viscosity was 72.3 cP.

Q: What about the “Viscosity Reduction” value [6] of the same compound?
A: The value was 9.3%.

Q: For `N=C(N)NCCC[C@H](N)C(=O)O` [Arginine], which Viscosity ([8]; arginine added 53 mg/mL) is on record?
A: Its Viscosity is 40.9 cP.

Q: What about the Viscosity Reduction ([8]; arginine added 53 mg/mL) of the same compound?
A: The Viscosity Reduction was 48%.

Q: What about the Viscosity ([8]; arginine added 79 mg/mL) of the same compound?
A: Its Viscosity is 46.1 cP.

Q: What about the Viscosity Reduction ([8]; arginine added 79 mg/mL) of the same compound?
A: Its Viscosity Reduction is 42%.

Q: What about the Viscosity ([8]; arginine added 105 mg/mL) of the same compound?
A: The Viscosity was 47.8 cP.

Q: And the Viscosity Reduction ([8]; arginine added 105 mg/mL)?
A: The Viscosity Reduction was 40%.

Q: And the Viscosity ([8]; arginine added 132 mg/mL)?
A: Its Viscosity is 49.0 cP.

Q: And the Viscosity Reduction ([8]; arginine added 132 mg/mL)?
A: Its Viscosity Reduction is 38%.

Q: And the Viscosity ([8]; arginine added 158 mg/mL)?
A: The Viscosity was 48.0 cP.

Q: What about the Viscosity Reduction ([8]; arginine added 158 mg/mL) of the same compound?
A: Its Viscosity Reduction is 39%.

Q: What about the Viscosity ([8]; arginine added 174 mg/mL) of the same compound?
A: Its Viscosity is 50.3 cP.

Q: And the Viscosity Reduction ([8]; arginine added 174 mg/mL)?
A: The Viscosity Reduction was 36%.

Q: And the Viscosity ([8]; arginine added 211 mg/mL)?
A: The Viscosity was 51.4 cP.

Q: What about the Viscosity Reduction ([8]; arginine added 211 mg/mL) of the same compound?
A: Its Viscosity Reduction is 35%.

Q: What about the Viscosity ([9]; arginine 25 mg/ml) of the same compound?
A: The Viscosity was 76.7 cP.

Q: What about the “Viscosity Reduction” value ([9]; arginine 25 mg/ml) of the same compound?
A: Its value is 41%.

Q: With `O=C(O)CC(O)(CC(=O)O)C(=O)O` as the compound, how does the Viscosity [6] read?
A: The Viscosity was 74.9 cP.

Q: And the “Viscosity Reduction” value [6]?
A: Its value is 6.0%.

Q: What about the Viscosity ([13]; excipient 20 mg/mL) of the same compound?
A: The Viscosity was 73.3 cP.

Q: And the “Viscosity Reduction” value ([13]; excipient 20 mg/mL)?
A: The value was 28%.

Q: And the Viscosity ([13]; excipient 40 mg/mL)?
A: The Viscosity was 56.8 cP.

Q: What about the “Viscosity Reduction” value ([13]; excipient 40 mg/mL) of the same compound?
A: The value was 44%.
